Measured values reported in article PMC7026418, “The kinase polypharmacology landscape of clinical PARP inhibitors” (Scientific Reports, 2020).
Like-named read-outs stand apart in the source and are kept apart here.

Assays:
Experiment in all cases: biochemical
Design in all cases: DiscoveRx KINOMEscan active site-directed competition binding; percent of control kinase bound to immobilised ligand
EPHB1 = molecular target: T1, EPHB1 (Homo sapiens, UniProt P54762)
T1 sequence (P54762 1-984): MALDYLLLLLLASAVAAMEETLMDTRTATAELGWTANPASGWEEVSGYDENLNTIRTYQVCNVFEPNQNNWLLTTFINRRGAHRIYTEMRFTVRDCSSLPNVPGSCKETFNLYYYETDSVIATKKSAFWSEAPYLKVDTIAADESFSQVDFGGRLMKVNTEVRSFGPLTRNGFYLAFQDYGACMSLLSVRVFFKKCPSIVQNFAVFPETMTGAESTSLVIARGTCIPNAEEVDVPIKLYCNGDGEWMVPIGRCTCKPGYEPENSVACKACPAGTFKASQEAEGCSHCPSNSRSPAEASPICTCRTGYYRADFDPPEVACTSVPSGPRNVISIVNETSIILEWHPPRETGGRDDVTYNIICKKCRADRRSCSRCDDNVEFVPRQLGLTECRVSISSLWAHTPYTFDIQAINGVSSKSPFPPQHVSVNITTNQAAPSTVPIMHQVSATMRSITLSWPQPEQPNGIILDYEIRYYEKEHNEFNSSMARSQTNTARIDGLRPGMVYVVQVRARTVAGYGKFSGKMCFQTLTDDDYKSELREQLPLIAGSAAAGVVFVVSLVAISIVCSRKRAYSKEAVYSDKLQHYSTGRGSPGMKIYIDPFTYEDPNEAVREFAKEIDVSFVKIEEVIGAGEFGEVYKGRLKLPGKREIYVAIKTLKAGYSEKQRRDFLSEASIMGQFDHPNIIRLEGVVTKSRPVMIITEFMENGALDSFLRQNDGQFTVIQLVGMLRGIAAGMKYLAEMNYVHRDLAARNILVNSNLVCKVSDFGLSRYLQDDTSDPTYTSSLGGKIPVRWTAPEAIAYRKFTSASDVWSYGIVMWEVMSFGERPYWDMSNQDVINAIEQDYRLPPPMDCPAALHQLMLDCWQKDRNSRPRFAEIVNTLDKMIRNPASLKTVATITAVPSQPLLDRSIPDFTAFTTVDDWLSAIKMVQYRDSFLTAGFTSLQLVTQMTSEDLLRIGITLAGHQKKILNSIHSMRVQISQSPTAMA

TAOK1 = molecular target: T2, TAOK1 (Homo sapiens, UniProt Q7L7X3)
T2 sequence (Q7L7X3 1-1001): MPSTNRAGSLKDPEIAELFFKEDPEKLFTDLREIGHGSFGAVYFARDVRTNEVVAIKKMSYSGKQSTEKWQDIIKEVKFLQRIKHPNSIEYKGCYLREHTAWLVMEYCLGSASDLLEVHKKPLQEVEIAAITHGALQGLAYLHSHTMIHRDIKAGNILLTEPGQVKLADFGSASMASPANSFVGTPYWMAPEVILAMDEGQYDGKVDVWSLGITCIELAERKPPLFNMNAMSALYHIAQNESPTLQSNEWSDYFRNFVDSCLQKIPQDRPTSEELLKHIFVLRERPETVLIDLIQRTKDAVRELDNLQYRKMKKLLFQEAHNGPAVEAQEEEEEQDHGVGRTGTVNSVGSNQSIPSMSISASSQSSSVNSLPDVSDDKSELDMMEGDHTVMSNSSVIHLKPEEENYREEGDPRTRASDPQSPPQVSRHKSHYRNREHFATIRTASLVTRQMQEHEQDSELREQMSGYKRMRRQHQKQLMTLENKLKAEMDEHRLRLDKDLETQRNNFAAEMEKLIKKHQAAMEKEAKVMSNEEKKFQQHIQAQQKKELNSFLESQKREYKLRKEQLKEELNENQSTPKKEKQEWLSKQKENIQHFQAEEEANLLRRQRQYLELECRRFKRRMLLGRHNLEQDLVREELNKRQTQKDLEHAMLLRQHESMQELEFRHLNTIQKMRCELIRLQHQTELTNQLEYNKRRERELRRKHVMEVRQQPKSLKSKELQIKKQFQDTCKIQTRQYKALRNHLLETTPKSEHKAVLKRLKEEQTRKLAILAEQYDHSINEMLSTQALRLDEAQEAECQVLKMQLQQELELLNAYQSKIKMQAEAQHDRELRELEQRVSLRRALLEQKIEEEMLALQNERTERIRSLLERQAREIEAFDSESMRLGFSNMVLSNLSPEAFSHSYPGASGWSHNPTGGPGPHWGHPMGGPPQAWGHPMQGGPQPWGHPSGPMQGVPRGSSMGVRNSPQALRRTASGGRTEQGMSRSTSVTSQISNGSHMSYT

KIT(L576P) = KIT(L576P) (Homo sapiens, UniProt P10721, L576P)
ABL1-phosphorylated = molecular target: T3, ABL1-phosphorylated (Homo sapiens, UniProt P00519)
T3 construct: phosphorylated

VEGFR2 = molecular target: T4, VEGFR2 (Homo sapiens, UniProt P35968)
T4 construct: gene KDR

[1] = read-out: Talazoparib (BMN 673) / %Ctrl @ 10000nM
[2] = read-out: Olaparib / %Ctrl @ 10000nM
[3] = read-out: Niraparib (MK-4827) / %Ctrl @ 10000nM
[4] = read-out: Rucaparib / %Ctrl @ 10000nM, binding competition, % of control

T4 sequence (P35968 whole entry): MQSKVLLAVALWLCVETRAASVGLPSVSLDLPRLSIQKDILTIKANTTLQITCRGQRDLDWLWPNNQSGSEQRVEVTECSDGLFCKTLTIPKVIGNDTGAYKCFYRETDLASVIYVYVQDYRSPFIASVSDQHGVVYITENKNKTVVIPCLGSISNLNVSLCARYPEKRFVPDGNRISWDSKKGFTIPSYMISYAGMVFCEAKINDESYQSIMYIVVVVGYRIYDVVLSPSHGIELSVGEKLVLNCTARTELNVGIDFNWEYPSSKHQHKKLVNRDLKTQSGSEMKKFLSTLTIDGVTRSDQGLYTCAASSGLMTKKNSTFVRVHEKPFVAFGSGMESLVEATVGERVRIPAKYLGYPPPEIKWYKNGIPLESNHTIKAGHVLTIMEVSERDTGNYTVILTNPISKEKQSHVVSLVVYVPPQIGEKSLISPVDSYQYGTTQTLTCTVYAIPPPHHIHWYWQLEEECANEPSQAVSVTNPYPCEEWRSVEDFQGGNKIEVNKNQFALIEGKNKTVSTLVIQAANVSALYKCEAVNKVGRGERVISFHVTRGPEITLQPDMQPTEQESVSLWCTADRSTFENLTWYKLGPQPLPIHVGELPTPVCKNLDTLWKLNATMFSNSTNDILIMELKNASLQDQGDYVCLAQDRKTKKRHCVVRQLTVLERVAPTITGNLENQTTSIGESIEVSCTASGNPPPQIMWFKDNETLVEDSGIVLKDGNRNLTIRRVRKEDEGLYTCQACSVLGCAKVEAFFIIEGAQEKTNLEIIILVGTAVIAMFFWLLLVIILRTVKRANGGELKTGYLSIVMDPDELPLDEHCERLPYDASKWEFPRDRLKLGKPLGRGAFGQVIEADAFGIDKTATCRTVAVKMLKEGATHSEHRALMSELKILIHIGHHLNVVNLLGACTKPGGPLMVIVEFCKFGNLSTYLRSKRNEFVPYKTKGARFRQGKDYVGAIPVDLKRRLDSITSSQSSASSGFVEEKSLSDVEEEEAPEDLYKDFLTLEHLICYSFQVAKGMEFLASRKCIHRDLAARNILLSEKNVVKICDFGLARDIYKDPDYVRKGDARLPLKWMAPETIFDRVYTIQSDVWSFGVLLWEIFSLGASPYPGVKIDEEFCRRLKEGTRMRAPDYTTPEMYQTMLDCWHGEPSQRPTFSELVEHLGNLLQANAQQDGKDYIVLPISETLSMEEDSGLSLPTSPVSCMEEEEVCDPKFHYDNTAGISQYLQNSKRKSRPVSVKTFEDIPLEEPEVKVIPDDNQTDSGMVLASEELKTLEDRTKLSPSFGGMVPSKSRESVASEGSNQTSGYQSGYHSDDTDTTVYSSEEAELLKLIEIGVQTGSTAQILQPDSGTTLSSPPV
T3 sequence (P00519 whole entry): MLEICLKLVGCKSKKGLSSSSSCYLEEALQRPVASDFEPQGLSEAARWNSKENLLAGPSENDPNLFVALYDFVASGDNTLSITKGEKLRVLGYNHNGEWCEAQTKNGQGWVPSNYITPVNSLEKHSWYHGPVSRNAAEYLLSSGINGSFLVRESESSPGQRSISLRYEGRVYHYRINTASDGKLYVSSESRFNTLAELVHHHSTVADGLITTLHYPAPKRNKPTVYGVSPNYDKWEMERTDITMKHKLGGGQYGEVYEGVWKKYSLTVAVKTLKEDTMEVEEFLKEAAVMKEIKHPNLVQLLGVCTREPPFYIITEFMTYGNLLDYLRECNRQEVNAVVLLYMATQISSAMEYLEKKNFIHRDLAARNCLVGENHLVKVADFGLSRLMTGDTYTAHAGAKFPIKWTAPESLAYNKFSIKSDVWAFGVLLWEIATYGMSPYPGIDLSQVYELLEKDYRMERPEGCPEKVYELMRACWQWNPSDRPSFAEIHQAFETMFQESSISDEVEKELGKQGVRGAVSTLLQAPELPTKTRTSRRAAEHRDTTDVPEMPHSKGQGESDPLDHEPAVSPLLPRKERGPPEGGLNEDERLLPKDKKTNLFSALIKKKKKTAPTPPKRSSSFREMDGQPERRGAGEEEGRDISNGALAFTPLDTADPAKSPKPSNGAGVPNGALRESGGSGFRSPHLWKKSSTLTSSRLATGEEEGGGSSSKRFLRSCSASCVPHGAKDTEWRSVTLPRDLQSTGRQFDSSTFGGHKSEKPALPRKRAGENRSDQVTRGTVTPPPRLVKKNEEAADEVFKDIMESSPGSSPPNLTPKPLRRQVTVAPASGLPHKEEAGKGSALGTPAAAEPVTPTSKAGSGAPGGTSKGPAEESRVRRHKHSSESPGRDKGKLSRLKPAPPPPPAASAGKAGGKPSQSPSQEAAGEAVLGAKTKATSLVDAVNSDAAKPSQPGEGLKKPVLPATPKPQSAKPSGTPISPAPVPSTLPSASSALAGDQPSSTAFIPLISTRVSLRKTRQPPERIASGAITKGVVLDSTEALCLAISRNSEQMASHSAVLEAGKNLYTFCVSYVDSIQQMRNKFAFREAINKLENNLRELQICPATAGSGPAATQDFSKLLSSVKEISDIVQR
Chain of KIT(L576P) (P10721 whole entry L576P): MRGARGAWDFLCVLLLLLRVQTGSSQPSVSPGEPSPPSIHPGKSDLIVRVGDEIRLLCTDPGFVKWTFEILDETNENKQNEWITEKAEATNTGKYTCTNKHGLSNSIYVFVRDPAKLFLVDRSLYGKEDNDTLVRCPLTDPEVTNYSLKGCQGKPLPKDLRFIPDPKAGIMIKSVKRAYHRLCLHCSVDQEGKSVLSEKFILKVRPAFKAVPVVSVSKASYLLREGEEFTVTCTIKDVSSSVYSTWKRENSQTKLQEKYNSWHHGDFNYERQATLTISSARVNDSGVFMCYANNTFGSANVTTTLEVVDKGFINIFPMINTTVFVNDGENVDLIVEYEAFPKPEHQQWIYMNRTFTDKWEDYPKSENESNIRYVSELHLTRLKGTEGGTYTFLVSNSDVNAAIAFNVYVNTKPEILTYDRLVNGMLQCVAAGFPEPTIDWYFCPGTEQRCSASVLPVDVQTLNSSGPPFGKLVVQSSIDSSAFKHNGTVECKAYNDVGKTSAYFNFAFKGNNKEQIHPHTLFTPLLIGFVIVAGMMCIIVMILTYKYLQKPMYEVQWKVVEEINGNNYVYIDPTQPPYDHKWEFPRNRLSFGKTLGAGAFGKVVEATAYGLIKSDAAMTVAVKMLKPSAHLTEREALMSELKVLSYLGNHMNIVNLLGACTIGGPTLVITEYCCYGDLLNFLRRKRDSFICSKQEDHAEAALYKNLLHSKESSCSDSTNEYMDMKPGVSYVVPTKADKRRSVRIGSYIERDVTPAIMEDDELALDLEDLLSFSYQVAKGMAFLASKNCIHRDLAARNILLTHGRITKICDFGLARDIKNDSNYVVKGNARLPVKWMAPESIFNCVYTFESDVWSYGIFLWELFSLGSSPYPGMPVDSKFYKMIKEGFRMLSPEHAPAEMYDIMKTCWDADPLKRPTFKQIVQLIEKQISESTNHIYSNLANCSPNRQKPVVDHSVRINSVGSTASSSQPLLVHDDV

Q: How did the percent of control binding at 10 µM (EPHB1; [1]) turn out when `Cn1ncnc1[C@H]1c2n[nH]c(=O)c3cc(F)cc(c23)N[C@@H]1c1ccc(F)cc1` [Talazoparib] was run?
A: 94%

Q: What about the percent of control binding at 10 µM (TAOK1; [1]) of the same molecule?
A: 100%

Q: And the percent of control binding at 10 µM (KIT(L576P); [1])?
A: 100%

Q: What about the percent of control binding at 10 µM (ABL1-phosphorylated; [1]) of the same molecule?
A: 100%

Q: And the percent of control binding at 10 µM (VEGFR2; [1])?
A: 100%

Q: `O=C(c1cc(Cc2n[nH]c(=O)c3ccccc23)ccc1F)N1CCN(C(=O)C2CC2)CC1` [Olaparib] was tested. Which percent of control binding at 10 µM (EPHB1; [2]) did it give?
A: 99%

Q: What about the percent of control binding at 10 µM (TAOK1; [2]) of the same molecule?
A: 96%

Q: And the percent of control binding at 10 µM (KIT(L576P); [2])?
A: 100%

Q: And the percent of control binding at 10 µM (ABL1-phosphorylated; [2])?
A: 98%

Q: What about the percent of control binding at 10 µM (VEGFR2; [2]) of the same molecule?
A: 95%

Q: For `NC(=O)c1cccc2cn(-c3ccc([C@@H]4CCCNC4)cc3)nc12` [Niraparib], which percent of control binding at 10 µM (EPHB1; [3]) is on record?
A: 76%

Q: What about the percent of control binding at 10 µM (TAOK1; [3]) of the same molecule?
A: 80%

Q: And the percent of control binding at 10 µM (KIT(L576P); [3])?
A: 80%

Q: And the percent of control binding at 10 µM (ABL1-phosphorylated; [3])?
A: 80%

Q: What about the percent of control binding at 10 µM (VEGFR2; [3]) of the same molecule?
A: 77%

Q: How did the percent of control binding at 10 µM (EPHB1; [4]) turn out when `CNCc1ccc(-c2[nH]c3cc(F)cc4c3c2CCNC4=O)cc1` [Rucaparib] was run?
A: 100%

Q: What about the percent of control binding at 10 µM (TAOK1; [4]) of the same molecule?
A: 72%

Q: What about the percent of control binding at 10 µM (KIT(L576P); [4]) of the same molecule?
A: 88%

Q: And the percent of control binding at 10 µM (ABL1-phosphorylated; [4])?
A: 98%

Q: And the percent of control binding at 10 µM (VEGFR2; [4])?
A: 98%
